“Also recorded” adds a separate entry of the source.
Columns and labels:
Col4a3 knockout mice = assay: Renal function and body weight in Col4a3 knockout mice treated with ezetimibe (FIG. 3); format: in vivo, mouse
Description: Mouse models: Mice in which exon 5 of a3 chain of collagen type IV is deleted (Col4a3 KO) were obtained from the Jackson Laboratory (#002908, 129-Col4a3tm1Dec/J). Col4a3 heterozygous littermates were bred to generate Col4a3 KO mice. Four groups of mice with n=3-10 per group were studied. The four groups consisted of: 1) wildtype controls+vehicle, 2) wildtype controls+ezetimibe, 3) Col4a3 KO+vehicle, 4) Col4a3 KO+ezetimibe. ezetimibe was administered by oral gavage daily starting at 4 weeks of age at a concentration of 5 mg/kg body weight. […] Mice were sacrificed at 8 weeks of age when progression to end-stage renal failure had occurred.
Albumin/creatinine ratio: All albuminuria values are expressed as μg albumin/mg creatinine. Albumin/creatinine determined by ELISA (Bethyl Laboratories) for albumin detection and a biochemical assay based on the Jaffe method for creatinine detection (Stanbio) as previously described.
Serology: Immediately prior to sacrifice, a blood sample was collected for the determination of BUN and lipid panel analysis in the comparative laboratory core facility of the University of Miami. Serum creatinine was determined by tandem mass spectrometry (UAB-UCSD O'Brien Core Center, University of Alabama).

Col4a3−/− mice [1] = assay: Renal function in Col4a3-/- mice treated with ezetimibe, ramipril or both (Example 1, FIG. 5); format: in vivo, mouse; conditions: vs untreated Col4a3−/−
Excerpt: Albumin/creatinine ratio: All albuminuria values are expressed as μg albumin/mg creatinine. Albumin/creatinine determined by ELISA (Bethyl Laboratories) for albumin detection and a biochemical assay based on the Jaffe method for creatinine detection (Stanbio) as previously described. Serology: Immediately prior to sacrifice, a blood sample was collected for the determination of BUN and lipid panel analysis in the comparative laboratory core facility of the University of Miami. Serum creatinine was determined by tandem mass spectrometry (UAB-UCSD O'Brien Core Center, University of Alabama). The following experiment was performed to investigate which treatment, ezetimibe (EZ), ramipril (Ramp) or the combination of both drugs (EZ+Ramp), would best preserve renal function in Col4a3 knockout mice, all drugs were administered to 4-week-old Col4a3−/− mice for 4 weeks as follows: ezetimibe (Ez) was orally administered at a concentration of 5 mg/kg BW, ramipril was added to the drinking water at a concentration that would lead to a daily ramipril uptake of 10 mg/kg BW. All mice were sacrificed at 8 weeks of age. The following four groups of mice were analyzed: Col4a3^+/+, Col4a3^−/−+Ez, Col4a3^−/−+Ramp and Col4a3^−/−+Ez+Ramp.

Col4a3−/− mice [2] = assay: Renal cortex lipid content in Col4a3-/- mice (Example 4, FIG. 7); format: in vivo, mouse; conditions: for triglyceride (TG) content in kidney cortexes: treated vs untreated Col4a3−/− mice, ezetimibe 5 mg/kg, ramipril 10 mg/kg, 4 weeks
Description: Determination of cholesterol content in kidney cortex: Tissue from kidney cortexes was homogenized in hypotonic buffer (10 mM HEPES pH7.0, 15 mM KCl, 1 mM MgCl2, 10 mM phosphatase inhibitors). Lipids from 100 μl of the homogenate were extracted with 1 ml of hexane:isopropanol (3:2, v/v), dried and reconstituted in 100 μl of isopropanol-NP40 (9:1, v/v). Tissue fractions not soluble in the organic solvent, were further dried, reconstituted in 8 M urea, and assayed for protein concentration using Pierce BCA protein assay kit (ThermoFisher Scientific, MA, USA). Total cholesterol from lipid extracts was determined by the enzymatic method as previously described (Robinet, P., Wang, Z., Hazen, S. L. & Smith, J. D. A simple and sensitive enzymatic method for cholesterol quantification in macrophages and foam cells. Journal of lipid research 51, 3364-3369, 2010). Briefly, endogenous peroxides present were eliminated by incubating samples and standards with catalase (Sigma-Aldrich, MO, USA), 45 U/ml final concentration, for 15 min at 37° C. […] The plates were incubated at 37° C. for 30 min and fluorescence was read at 530 nm (Ex) and 580 nm (Em) in a plate reader (SpectraMax M5, Molecular Devices, CA, USA). Cholesteryl esters (CE) quantification was based on the method described from Toshimi M, et al. Briefly, 25 μl of samples was mixed with 150 μl of free cholesterol decomposition reagent (45 U/ml catalase, 1 U/ml cholesterol oxidase) and incubated 2-4 h at 37° C., and then the final volume was brought up to 250 μl prior to determining free and total cholesterol remaining. Total cholesterol remaining was determined by mixing 50 μl of end product reaction with 50 μl of reagent A, as described above. Free cholesterol remaining was determined similarly, but without including cholesterol esterase in the reagent. CE was calculated by the formula CE=(TC−FC)×DF, where TC is the total cholesterol remaining, FC the free cholesterol remaining and DF the dilution factor, in this case, 10. Lipid content: Oil Red 0 staining was performed on frozen tissue sections and triglyceride content was determined on snap frozen kidney tissue as described above. The following experiment was performed to investigate which treatment, ezetimibe (EZ), ramipril (Ramp) or the combination of both drugs (EZ+Ramp), would best preserve renal function in Col4a3 knockout mice, all drugs were administered to 4-week-old Col4a3−/− mice for 4 weeks as follows: ezetimibe (Ez) was orally administered at a concentration of 5 mg/kg BW, ramipril was added to the drinking water at a concentration that would lead to a daily ramipril uptake of 10 mg/kg BW. All mice were sacrificed at 8 weeks of age. The following four groups of mice were analyzed: Col4a3^+/+, Col4a3^−/−+Ez, Col4a3^−/−+Ramp and Col4a3^−/−+Ez+Ramp.

[3] = ambient temperature; cited from earlier work
[4] = ezetimibe 5 mg/kg oral gavage daily, sacrifice at 8 weeks
[5] = Col4a3−/− mice treated 4 weeks, ezetimibe 5 mg/kg, ramipril 10 mg/kg

Compound: O=C1[C@H](CC[C@H](O)c2ccc(F)cc2)[C@@H](c2ccc(O)cc2)N1c1ccc(F)cc1 [ezetimibe]
- body weight (Col4a3 knockout mice; ezetimibe 5 mg/kg oral gavage daily): prevents body weight loss
- albumin/creatinine ratio (Col4a3 knockout mice; ezetimibe 5 mg/kg oral gavage daily from 4 weeks of age, vs untreated Col4a3 knockout mice): significant reduction in the albumin/creatinine ratio
- serum BUN levels (Col4a3 knockout mice; [4]): prevents increases in serum BUN levels
- serum creatinine levels (Col4a3 knockout mice; [4]): significantly reduces serum creatinine levels
- albumin/creatinine ratio (ACR) (Col4a3−/− mice [1]; 4-week-old Col4a3−/− mice treated 4 weeks, ezetimibe 5 mg/kg BW oral, ramipril 10 mg/kg BW in drinking water): significant reduction in the albumin/creatinine ratio; also recorded: significant decrease in the albumin/creatinine ratio
- serum BUN levels (Col4a3−/− mice [1]; [5]): significant reduction in the serum BUN levels
- serum creatinine levels (Col4a3−/− mice [1]; [5]): significant reduction in the serum creatinine levels
- total cholesterol content (kidney cortexes) (Col4a3−/− mice [2]; ezetimibe only treated Col4a3−/− mice): no effect on the total cholesterol content
- triglyceride (TG) content in kidney cortexes (Col4a3−/− mice [2]): significantly decreased
- triglyceride (TG) content in kidney cortexes (Col4a3−/− mice [2]; listed as ezetemibe): significantly decreased renal triglyceride content
- stability [3]: stable
